This note sets out measurements from ChEMBL document CHEMBL3507680, “University of Dundee, Gates Library screen for HepG2 cell viability”.

The series is described as follows: Human HepG2 cell viability assay in 384 well format. The class given is toxicity, cell-based. Further details: dose 125 nL, time 70.5 hour; cytotoxicity at 70.5 h: concentration not given beside the values. The note with it: HepG2 cells, read-out: Inhibition.

The structures appear in SMILES notation.

With `CCc1ncc(C(=O)N(C)C2Cc3ccccc3C2)cn1`, the cytotoxicity at 70.5 h stood at 2.28%.
With `Cc1cccc(C(C(=O)NC(C)(C)CN2CCCC2)N(C)C)c1` (centres undefined) the figure was -8.64%; with `CC(=O)NCc1cc2n(n1)CCN(Cc1cccc(CCN)c1)C2`, -2.57%.
With `O=C(NCCn1ccnc1-c1cc2n(n1)CCNC2)c1ccc(F)cc1` the figure was 2.16%; with `O=C(Cn1nc2ccccc2n1)N1CCCn2cncc2C1`, -8.74%; with `CC1(C)CN(S(=O)(=O)N2CCCC2)CC1c1ccccc1` (centres undefined), -6.08%.
Take `CCc1nc(NCCc2nc(C)c(C)s2)c2cnn(C)c2n1`: the cytotoxicity at 70.5 h is -7.53%.
The result for `CCc1cccc(NC(=O)CCC(=O)N(C)Cc2nc(C)c[nH]2)c1` reads 2.2%; that for `Cn1c(CN2CCCCC2)nnc1C1CCCN(c2ccncc2F)C1` (centres undefined), -5.33%; that for `CCN1CCCC1Cn1ccc2c(OC)c(OC)ccc2c1=O` (centres undefined), -6.22%.
The result for `O=S1(=O)C[C@@H]2[C@H](C1)N(Cc1cc(F)cc(F)c1)CCN2CCO` reads -1.64%.
For `CCC(C)N(Cc1cccnc1)C(=O)c1ccc(NS(=O)(=O)CC)cc1` (centres undefined), the cytotoxicity at 70.5 h was -1.92%.
For `Cc1cccnc1CN(C)C(C(=O)O)c1ccc(C(C)(C)C#N)cc1` (centres undefined), the cytotoxicity at 70.5 h is -0.799%.
In the case of `Cc1cc(NC(=O)c2ccc(CN3CC[C@H](O)C3)cc2)ccc1F`, the cytotoxicity at 70.5 h is -13.5%.
The result for `CC(C)Cc1cc(C(=O)NCC2CCN(c3ccccc3F)C2)on1` (centres undefined) reads -13.6%; that for `CCCC(=O)Nc1cc(C(=O)NC(C)Cc2ccncc2)ccc1C` (centres undefined), -5.95%; that for `CC(C)CN1CC(c2nc(-c3ccsc3)c[nH]2)CC1=O` (centres undefined), -2.45%.
In the case of `Cc1ccccc1C(C(=O)N1CCN(C(=O)c2ccc[nH]2)CC1)N(C)C` (centres undefined), the cytotoxicity at 70.5 h is -15.2%.
For `Cc1cc(C)n(C2CCN(c3ncnc4c3CCC4)C2)n1` (centres undefined), the cytotoxicity at 70.5 h was found to be 12.6%.
With `CCc1nccn1CCC(=O)N1C[C@H]2CC[C@@H]1CN(C(=O)N(C)C)C2` the figure was -3.14%; with `Cc1ccc(-c2nc(CNC(C)CCO)[nH]c2-c2ccccn2)cc1` (centres undefined), 1.74%; with `Cn1nnnc1SCCNC(=O)C1CCN(C(=O)C2CCCC2)CC1`, -5.48%.
Take `O=C(Cc1c[nH]c(=O)[nH]c1=O)N1CCCCC1CCc1ccccc1` (centres undefined): the cytotoxicity at 70.5 h was 3.58%.
With `COc1ccc(F)cc1C(=O)N1C[C@H]2CC[C@@H]1CN(c1ncccn1)C2` the figure was -9.41%.
As to `CCc1nc(C)c(C(=O)N(C)Cc2cnn(-c3cccc(OC)c3)c2)s1`, the cytotoxicity at 70.5 h was -3.66%.
As to `CNC(=O)C(C)CNC(=O)c1coc(COc2cccc(F)c2F)n1` (centres undefined), the cytotoxicity at 70.5 h is -14.8%.
Take `CCCc1nc(N2CC[C@@H](c3ccc4c(c3)OCO4)[C@H](O)C2)no1`: the cytotoxicity at 70.5 h is -9.08%.
The result for `Cc1ncoc1C(=O)N1CCOC(CCCC(C)C)C1` (centres undefined) reads -8.44%.
With `COC(=O)[C@H]1C[C@@H](O)CCN1S(=O)(=O)c1ccc(F)cc1F` the figure was 21.8%; with `CCC(NS(=O)(=O)c1ccc(C(=O)NC2CC2)cc1)c1ccnn1C` (centres undefined), -7.49%; with `CCc1oc(C(=O)N[C@@H]2c3ccccc3C[C@@H]2O)cc1CN1CCCC1`, -6.15%.
`c1cncc(Cc2nnc3n2CCN(CC2CCCNC2)CC3)c1` (centres undefined): the cytotoxicity at 70.5 h was -14%.
With `CCN1CCCC1CNC(=O)CCSc1ccc2c(c1)OCCO2` (centres undefined) the figure was 2.47%; with `Cc1nc(-c2cccnc2)ncc1C(=O)N1CCCCC(N)C1` (centres undefined), -23.9%; with `CC(C)N1CCC(CN2CCn3nc(CNC(=O)N(C)C)cc3C2)CC1`, 4.16%.
The result for `O=C(NCCCN1CCOCC1)C1CCCN(Cc2ccco2)C1` (centres undefined) reads -1.31%; that for `Cc1cc(CNc2nccc(N)n2)c2[nH]c(C)c(C)c2c1`, 1.64%; that for `c1cc(-c2ccn(CCN3CCCC3)n2)cc(-c2nccs2)c1`, -6.38%.
For the compound `O=C(C1CCC1)N1CCCn2nc(CNc3ncccn3)cc2C1`, the cytotoxicity at 70.5 h was 1.42%.
As for `Cc1nn(C)c2nc(N3CCCC3c3nccs3)sc12` (centres undefined), the cytotoxicity at 70.5 h was -12.1%.
The result for `CCN(CCn1cccn1)C(=O)CN1C(=O)OC[C@@H]1c1ccccc1` reads -6.78%.
As to `O=C(NCc1cn2cccnc2n1)C1CC(=O)N(Cc2ccccn2)C1` (centres undefined), the cytotoxicity at 70.5 h was -6.73%.
For `C[C@@H]1CN(S(=O)(=O)N2CCCCCC2)C[C@@]1(O)C1CCC1`, the cytotoxicity at 70.5 h is -8.97%.
As to `Cc1ccccc1OCC1CCCN(c2cc(N)nc(N)n2)C1` (centres undefined), the cytotoxicity at 70.5 h is -8.34%.
With `CCc1c(C(=O)N2CC[C@H](N3CCOCC3)[C@H](CCCO)C2)csc1C` the figure was -20.4%; with `CCN(Cc1noc(CC(C)C)n1)Cc1cccc(F)c1O`, 12.8%; with `CC(C)c1nnsc1CNC(=O)C1CCN(C(=O)C2CCCC2)CC1`, 12%.
With `CCN1CC2(CCC1=O)CCN(Cc1cscn1)CC2` the figure was -10.8%; with `CCOC(=O)N1CCN(c2nc(CCN)nc3sc(C)c(C)c23)CC1`, 1.12%; with `COc1ccc(C)cc1C(=O)N1C[C@@H](CN(C)CCO)[C@@H](CO)C1`, 0.0463%.
As to `NC(=O)[C@@H]1CCCN1C(=O)c1csc(-c2ccc(C(F)(F)F)cc2)n1`, the cytotoxicity at 70.5 h came out at 20.6%.
The result for `CN(Cc1cc(-c2ccncc2)no1)C(=O)[C@@H]1CSCN1C` reads -13.1%; that for `Cc1cc(N2CCN(C3CCSCC3)CC2)n2nc(C)c(C)c2n1`, -5.2%.
The result for `CC(=O)N1CCc2c(nc(N(C)C)nc2NCCCn2ccnc2)C1` reads -8.48%; that for `CCc1nc(C)c(C2CC(=O)Nc3c2c(-c2cccnc2)nn3C)[nH]1` (centres undefined), -5.87%; that for `O=C(c1ccccc1)N1C[C@@H]2CC[C@H](C1)N(C(=O)CN1CCOCC1)C2`, 3.79%.
Take `N[C@@H]1CC[C@@H]1NC(=O)c1ccccc1OC(F)(F)C(F)F`: the cytotoxicity at 70.5 h was determined as 3.75%.
With `Cc1nnc(CN2C[C@H](NC(=O)CC3CCCC3)[C@@H](C3CC3)C2)s1` the figure was -7.74%; with `Cn1ccnc1C(=O)N1CCC(Cn2cc(-c3ccsc3)nn2)CC1`, -8.29%.
Turning to `CCCOC1CCCN(C(=O)c2ccnnc2)C1` (centres undefined), the cytotoxicity at 70.5 h is -2.27%.
With `CC(C)c1nc(CN(C)C(=O)CCNC(=O)c2ccccc2F)no1` the figure was 19.8%.
The result for `CC(=O)N1CCN(Cc2ccc(Cl)c(F)c2)CC(O)C1` (centres undefined) reads 17.8%; that for `O=S1(=O)COCCN1CCOc1ccc(F)cc1`, -5.2%.
As for `Cc1noc(C)c1-c1n[nH]c2c1CN(S(=O)(=O)c1cccs1)CC2`, the cytotoxicity at 70.5 h was found to be 0.699%.
On to `c1ccc(CCn2cc(-c3nc(CN4CCOCC4)no3)nn2)cc1`, for which the cytotoxicity at 70.5 h is -6.91%.
The result for `O=C(Cn1nc2ccccc2n1)N1CCCC(O)(CO)C1` (centres undefined) reads 6.64%; that for `CN(C)C(=O)c1ccc(C(C(=O)O)N(C)Cc2ccccc2Cl)cc1` (centres undefined), -8.81%.
Regarding `Nc1cc(C(=O)NC2CCCN(CCCc3ccccc3)C2)ccn1` (centres undefined), the cytotoxicity at 70.5 h is 12.3%.
With `Cc1nccc(-c2ccccc2)c1C(=O)N1CC[C@](C)(O)[C@H](C)C1` the figure was 13.7%.
